Experimental data as given in patent US6420367B1, “Pyrimidine derivatives exhibiting antitumor activity” (Shionogo & Co., Ltd., priority 1998, dated 2002).
In brackets after ≈: the same amount, converted by molar mass.

Assays:
[1] = system: DT-R cells (pRRE3-luc-transfected v-ki-ras-transformed NIH3T3 cells); signal derived from Ras oncogene products; assay: Inhibitory effect against cellular signaling derived from Ras oncogene products: luciferase reporter, dissociation of DT-R from DT-C activity (MAC); format: cell-based, mouse; settings: minimal tested concentration at which luciferase activities of DT-C cells and DT-R cells dissociated
Summary of the method: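 Value is a minimal active concentration: lowest dose where Ras-responsive reporter (DT-R) luciferase diverges from SV40-minimal-promoter control (DT-C). Both transfected v-Ki-ras NIH3T3 lines received 3-fold serial dilutions for 24 h at 37 °C in 10% FCS medium before lysis and luminometry.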

[2] = system: DT-C cells (pGV-P-transfected v-ki-ras-transformed NIH3T3 cells); assay: Luciferase activity in control DT-C cells (IC50-C): non-specific transcription-inhibitory effect or cytotoxicity; format: cell-based, mouse; settings: tested concentration nearest to 50% inhibition in DT-C cells; index of non-specific transcription inhibition or cytotoxicity
Excerpt: Test Example 1 Inhibitory Effect Against Cellular Signaling Derived From Ras Oncogene Products
1) Establishment of Cell Lines Used in Assay
Based on the reporter plasmid (pGV-P (Toyo Ink, Japan)), in which luciferase gene was ligated to SV40-derived minimal promoter, we constructed a plasmid designated pRRE3-luc by inserting 3 copies of chemically synthesized oligonucleotides (Sequence: CAGGATATGACTCT, derived from mouse NVL-3 (M. A. Reddy et al.(1992)Mol. Endocrinol., 6, 1051)) into upstream of the promoter. v-ki-ras-transformed NIH3T3 cells (DT cells, provided by Dr. Makoto Noda (Kyoto Univ., School of medicine)) were transfected with this plasmid by liposome-mediated transfection and transfected cell lines stably incorporated and maintained each plasmid were obtained. We named pGV-P and pRRE3-transfected cell line as DT-C and DT-R, respectively and used in the assay described below.
2) Preparation of Samples
i) All the cell lines were cultured in Dulbecco's Modified Essential Medium (DMEM: 10% Fetal Calf Serum(FCS: Hyclone, USA)) including […] kanamycin (Meiji Seika, Japan) in humidified incubator under condition of 5% CO2 at 37° C.
ii) DT-C and DT-R cells were seeded at 2500 cells/well into flat-bottom 96 well multiplate (Sumitomo bakelite) and incubated for 24 hours.
iii) Test compounds were prepared as 1 mg/ml DMSO solution.
iv) The solution of test compounds were added to the culture. Tested compounds are used at the concentration from […] to 0.51 ng/ml with by 3-fold dilution.
v) After 24 hours, the culture supernatant was completely aspirated and […] of cell-lysing solution (PGC-50 (Toyo Ink, Japan)) was added before cells were dried up. In order to the cells were lysed completely, multiwell plates were left at room temperature for 10 to 30 min. The plates were wrapped up and stored at −20° C. till the day of measurement.
3) Measurement of Samples
i) Melt the samples by putting 96 well multiplate at 37° C. and add 90 μl/well 25 mM Tris (pH 7.5).
ii) Transfer 50 μl of the sample (110 μl) to the 96 well microplate for measurement (Microlite 1 (Dynatech)).
iii) Measure the samples by the luminometer, LUMINOUS CT9000D (Dia-Yatron, Japan). We used Pickagene luminescence kit PGL2000 or LT2.0 (Toyo Ink, Japan) as substrates for luminescence measurement (50 μl/well).
4) Judgment of the Results
i) The luciferase activity of DT-C cells and DT-R cells were plotted in the graph where the relative activity and the compound concentration were expressed as Y-axis and X-axis, respectively. We judged by the degree of dissociation between the activities of DT-C cells and DT-R cells as an index.
ii) Concretely, efficacy of the compound was expressed by two values described below.
b) Among the points of concentration tested, the concentration which is the nearest to 50% inhibition concentration at DT-C cells (IC50-C), was shown as an index of non-specific transcription-inhibitory effect or of cytotoxicity. In case of positive compounds, 50% inhibition concentration above the area of active concentration in DT-C cells was expressed as IC50-C.

[3] = system: human colon cancer HT29; assay: In vitro cell growth inhibition test, MTT assay; format: cell-based; settings: MTT assay 4 days after compound addition
Summary of the method: (§1)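 Read-out is MTT-based cell growth inhibition, run in parallel on human lung, colon and pancreatic (PANC-1) tumour lines.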

[4] = system: human lung adenocarcinoma A549; assay: In vitro cell growth inhibition test, MTT assay; format: cell-based; settings: MTT assay 4 days after compound addition
Summary of the method: as §1

[5] = system: human pancreas cancer PANC-1; assay: In vitro cell growth inhibition test, MTT assay; format: cell-based; settings: MTT assay 4 days after compound addition
Summary of the method: as §1

[6] = system: human squamous lung cancer Ma44; assay: In vitro cell growth inhibition test, MTT assay; format: cell-based; settings: MTT assay 4 days after compound addition
Summary of the method: as §1

[7] = system: human squamous lung cancer RERF-RC-AI; assay: In vitro cell growth inhibition test, MTT assay; format: cell-based; settings: MTT assay 4 days after compound addition
Summary of the method: as §1

Row | Compound | MAC (Minimal Active Concentration) [1] | IC50-C [2] | IC50, HT29 [3] | IC50, A549 [4] | IC50, PANC-1 [5] | IC50, Ma44 [6] | IC50, RERF-LC-AI [7]
1 | CCCNC(=Nc1nc(CC)ncc1CSc1nnc(-c2ccc(F)cc2N)o1)NCCC [Compound A-140] | 0.0137 µg/mL | 3.33 µg/mL (≈ 7.05 µM) | 0.013 µg/mL (≈ 0.0275 µM) | 0.022 µg/mL (≈ 0.0466 µM) | 0.012 µg/mL (≈ 0.0254 µM) | 0.047 µg/mL (≈ 0.0995 µM) | 0.015 µg/mL (≈ 0.0317 µM)
2 | CCCNC(=Nc1nc(C)ncc1CSc1nnc(-c2ccc(Cl)cc2)o1)NCCC [Compound A-142] | 0.0412 µg/mL | 1.11 µg/mL (≈ 2.41 µM) | 0.032 µg/mL (≈ 0.0696 µM) | 0.038 µg/mL (≈ 0.0826 µM) | 0.015 µg/mL (≈ 0.0326 µM) | 0.021 µg/mL (≈ 0.0457 µM) | 0.018 µg/mL (≈ 0.0391 µM)
3 | CCCNC(=Nc1nc(C)ncc1CSc1nnc(-c2ccc(C)cc2)o1)NCCC [Compound A-143] | 0.0412 µg/mL | 1.11 µg/mL (≈ 2.53 µM) | 0.024 µg/mL (≈ 0.0546 µM) | 0.052 µg/mL (≈ 0.118 µM) | 0.02 µg/mL (≈ 0.0455 µM) | 0.033 µg/mL (≈ 0.0751 µM) | 0.023 µg/mL (≈ 0.0523 µM)
4 | CCCNC(=Nc1nc(C)ncc1CSc1nnc(-c2ccc(N)cc2)o1)NCCC [Compound A-144] | 0.0137 µg/mL | >10 µg/mL | 0.006 µg/mL (≈ 0.0136 µM) | 0.019 µg/mL (≈ 0.0431 µM) | 0.016 µg/mL (≈ 0.0363 µM) | 0.031 µg/mL (≈ 0.0704 µM) | 0.007 µg/mL (≈ 0.0159 µM)
5 | CNC(=Nc1nc(C)ncc1CSc1nnc(-c2ccc([N+](=O)[O-])cc2)o1)NC [Compound A-145] | 0.0412 µg/mL | >10 µg/mL | 0.007 µg/mL (≈ 0.0169 µM) | 0.09 µg/mL (≈ 0.217 µM) | 0.014 µg/mL (≈ 0.0338 µM) | 0.032 µg/mL (≈ 0.0772 µM) | 0.005 µg/mL (≈ 0.0121 µM)
6 | CCCNC(=Nc1nc(C)ncc1CSc1nnc(-c2ccc([N+](=O)[O-])cc2)o1)NC [Compound A-146] | 0.0137 µg/mL | >10 µg/mL | 0.014 µg/mL (≈ 0.0316 µM) | 0.18 µg/mL (≈ 0.407 µM) | 0.024 µg/mL (≈ 0.0542 µM) | 0.052 µg/mL (≈ 0.118 µM) | 0.011 µg/mL (≈ 0.0249 µM)
7 | CNC(=Nc1nc(C)ncc1CSc1nnc(-c2ccc(N)cc2)o1)NC [Compound A-147] | 0.123 µg/mL | >10 µg/mL | 0.008 µg/mL (≈ 0.0208 µM) | 0.1 µg/mL (≈ 0.26 µM) | 0.018 µg/mL (≈ 0.0468 µM) | 0.071 µg/mL (≈ 0.185 µM) | 0.008 µg/mL (≈ 0.0208 µM)
8 | CCCNC(=Nc1nc(CC)ncc1CSc1nnc(-c2ccc([N+](=O)[O-])cc2)o1)NCC [Compound A-149] | 0.123 µg/mL | 3.33 µg/mL (≈ 7.08 µM) | 0.034 µg/mL (≈ 0.0723 µM) | 0.025 µg/mL (≈ 0.0531 µM) | 0.041 µg/mL (≈ 0.0871 µM) | 0.085 µg/mL (≈ 0.181 µM) | 0.026 µg/mL (≈ 0.0553 µM)
9 | CCc1ncc(CSc2nnc(-c3ccc([N+](=O)[O-])cc3)o2)c(N=C(NC)NC)n1 [Compound A-152] | 0.123 µg/mL | >10 µg/mL | 0.082 µg/mL (≈ 0.191 µM) | 0.069 µg/mL (≈ 0.161 µM) | 0.013 µg/mL (≈ 0.0303 µM) | 0.039 µg/mL (≈ 0.091 µM) | 0.006 µg/mL (≈ 0.014 µM)
10 | CCc1ncc(CSc2nnc(-c3ccc(N)cc3)o2)c(N=C(NC)NC)n1 [Compound A-153] | 0.0412 µg/mL | >10 µg/mL | 0.015 µg/mL (≈ 0.0376 µM) | 0.067 µg/mL (≈ 0.168 µM) | 0.022 µg/mL (≈ 0.0552 µM) | 0.089 µg/mL (≈ 0.223 µM) | 0.011 µg/mL (≈ 0.0276 µM)
11 | CCNC(=Nc1nc(C)ncc1CSc1nnc(-c2ccc([N+](=O)[O-])cc2OC)o1)NCC [Compound A-161] | 0.0412 µg/mL | >10 µg/mL | 0.0055 µg/mL (≈ 0.0116 µM) | 0.012 µg/mL (≈ 0.0254 µM) | 0.0053 µg/mL (≈ 0.0112 µM) | 0.0071 µg/mL (≈ 0.015 µM) | 0.0068 µg/mL (≈ 0.0144 µM)
12 | CNC(=Nc1nc(C)ncc1CSc1nnc(-c2ccc([N+](=O)[O-])cc2OC)o1)NC [Compound A-162] | 0.123 µg/mL | >10 µg/mL | 0.0067 µg/mL (≈ 0.0151 µM) | 0.028 µg/mL (≈ 0.063 µM) | 0.0093 µg/mL (≈ 0.0209 µM) | 0.014 µg/mL (≈ 0.0315 µM) | 0.0085 µg/mL (≈ 0.0191 µM)
13 | CCNC(=Nc1nc(C)ncc1CSc1nnc(-c2ccc(N)cc2)o1)NC [Compound A-168] | 0.0412 µg/mL | >10 µg/mL | 0.0055 µg/mL (≈ 0.0138 µM) | 0.012 µg/mL (≈ 0.0301 µM) | 0.0059 µg/mL (≈ 0.0148 µM) | 0.017 µg/mL (≈ 0.0427 µM) | 0.0028 µg/mL (≈ 0.00703 µM)
14 | CNC(=Nc1nc(C)ncc1CSc1nnc(-c2ccc([N+](=O)[O-])cc2)o1)NC(C)C [Compound A-170] | <0.000508 µg/mL | >10 µg/mL | 0.0077 µg/mL (≈ 0.0174 µM) | 0.014 µg/mL (≈ 0.0316 µM) | 0.0065 µg/mL (≈ 0.0147 µM) | 0.0054 µg/mL (≈ 0.0122 µM) | 0.0027 µg/mL (≈ 0.0061 µM)
15 | CNC(=Nc1ncncc1CSc1nnc(-c2ccc(N)cc2)o1)NC [Compound A-174] | 0.37 µg/mL | >10 µg/mL | 0.012 µg/mL (≈ 0.0324 µM) | 0.032 µg/mL (≈ 0.0864 µM) | 0.014 µg/mL (≈ 0.0378 µM) | 0.076 µg/mL (≈ 0.205 µM) | 0.0067 µg/mL (≈ 0.0181 µM)
16 | CCNC(=Nc1nc(C)ncc1CSc1nnc(-c2ccc([N+](=O)[O-])cc2)o1)NCC(F)(F)F [Compound A-175] | 0.0137 µg/mL | 3.33 µg/mL (≈ 6.71 µM) | 0.01 µg/mL (≈ 0.0201 µM) | 0.017 µg/mL (≈ 0.0342 µM) | 0.01 µg/mL (≈ 0.0201 µM) | 0.015 µg/mL (≈ 0.0302 µM) | 0.0053 µg/mL (≈ 0.0107 µM)
17 | CCNC(=Nc1nc(C)ncc1CSc1nnc(-c2ccc(N)cc2)o1)NC(C)C [Compound A-182] | 0.0137 µg/mL | 3.3 µg/mL (≈ 7.74 µM) | 0.011 µg/mL (≈ 0.0258 µM) | 0.014 µg/mL (≈ 0.0328 µM) | 0.0073 µg/mL (≈ 0.0171 µM) | 0.016 µg/mL (≈ 0.0375 µM) | 0.0056 µg/mL (≈ 0.0131 µM)
18 | CCNC(=Nc1nc(C)ncc1CSc1nnc(-c2ccc(N)cc2)o1)NCC.Cl.Cl [Compound A-186] | 0.0412 µg/mL | >10 µg/mL | 0.014 µg/mL | 0.048 µg/mL | 0.017 µg/mL | 0.057 µg/mL | 0.014 µg/mL
19 | CCNC(=Nc1nc(C)ncc1CSc1nnc(-c2ccc([N+](=O)[O-])cc2)o1)NCC.Cl [Compound A-187] | 0.0137 µg/mL | >10 µg/mL | 0.013 µg/mL | 0.025 µg/mL | 0.014 µg/mL | 0.017 µg/mL | 0.012 µg/mL
20 | CCNC(=Nc1nc(C)ncc1CSc1nnc(-c2ccc(N)nc2)o1)NCC [Compound D-6] | 0.370 µg/mL | >10 µg/mL | 0.039 µg/mL (≈ 0.0943 µM) | 0.33 µg/mL (≈ 0.798 µM) | 0.085 µg/mL (≈ 0.206 µM) | 0.32 µg/mL (≈ 0.774 µM) | 0.037 µg/mL (≈ 0.0895 µM)
